In brackets after ≈: the same amount, converted by molar mass.
Experiments:
[1] = test system: E. faecalis VSE 1; assay: MIC, broth microdilution, vancomycin-sensitive E. faecalis (VSE 1); assay type: cell-based, Enterococcus faecalis; conditions: for MIC: Enterococcus faecalis VSE 1 (vancomycin-sensitive), read-out: MIC; for MIC-fold improvement vs. vancomycin: VSE 1, ratio of MIC of vancomycin and MIC of analogue
How it was run: (§1)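 Susceptibility was scored by broth microdilution (CLSI). In one instance each vancomycin analog or control antibiotic was tested in the presence of vancomycin, 10 μM final, and ultrapure water plus non-inoculated broth were included as controls.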

[2] = test system: E. faecalis VRE 6; assay: MIC, broth microdilution, vancomycin-resistant E. faecalis VRE 6 (VanA); assay type: cell-based, Enterococcus faecalis; conditions: for MIC: Enterococcus faecalis VRE 6 (vancomycin-resistant), read-out: MIC; for MIC-fold improvement vs. vancomycin: VRE 6, ratio of MIC of vancomycin and MIC of analogue
How it was run: as §1

[3] = test system: E. faecalis VRE 53; assay: MIC, broth microdilution, vancomycin-resistant E. faecalis VRE 53 (VanA); assay type: cell-based, Enterococcus faecalis; conditions: for MIC: Enterococcus faecalis VRE 53 (vancomycin-resistant), read-out: MIC; for MIC-fold improvement vs. vancomycin: VRE 53, ratio of MIC of vancomycin and MIC of analogue
How it was run: as §1

[4] = test system: E. faecalis VRE 29; assay: MIC, broth microdilution, vancomycin-resistant E. faecalis VRE 29 (VanA); assay type: cell-based, Enterococcus faecalis; conditions: for MIC: Enterococcus faecalis VRE 29 (vancomycin-resistant), read-out: MIC; for MIC-fold improvement vs. vancomycin: VRE 29, ratio of MIC of vancomycin and MIC of analogue
How it was run: as §1

[5] = test system: E. faecalis VRE 37; assay: MIC, broth microdilution, vancomycin-resistant E. faecalis VRE 37 (VanA); assay type: cell-based, Enterococcus faecalis; conditions: for MIC: Enterococcus faecalis VRE 37 (vancomycin-resistant), read-out: MIC; for MIC-fold improvement vs. vancomycin: VRE 37, ratio of MIC of vancomycin and MIC of analogue
How it was run: as §1

[6] = test system: Murine leukemia (L1210) cells; assay: Cytostatic activity, L1210 cell proliferation; assay type: cell-based; conditions: mean ± SD of three experiments; highest concentration tested 250 µM; 2 days; read-out: Toxicity (IC50) L1210
How it was run: (§2)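 Suspensions (300,000–500,000 cells/mL) combined with equal volumes of diluted compound; 37°C; L1210 2 d / CEM 3 d / HeLa 4 d; counted by Coulter counter; IC50 vs untreated wells.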

[7] = test system: human T-lymphocyte (CEM) cells; assay: Cytostatic activity, CEM cell proliferation; assay type: cell-based; conditions: mean ± SD of three experiments; highest concentration tested 250 µM; 3 days; read-out: Toxicity (IC50) CEM
How it was run: as §2

[8] = test system: human cervix carcinoma (HeLa) cells; assay: Cytostatic activity, HeLa cell proliferation; assay type: cell-based; conditions: mean ± SD of three experiments; highest concentration tested 250 µM; 4 days; read-out: Toxicity (IC50) HeLa
How it was run: as §2

[9] = test system: L1210, CEM and HeLa cell lines; assay: Cytostatic activity, average or summary over L1210, CEM and HeLa; assay type: cell-based; conditions: average of L1210, CEM and HeLa; read-out: Toxicity (IC50) Average
How it was run: as §2

[10] = test system: S. aureus VSSA (ATCC 6538); assay: MIC, broth microdilution, vancomycin-sensitive S. aureus (VSSA/MSSA, ATCC 6538); assay type: cell-based, Staphylococcus aureus; conditions: for MIC: Staphylococcus aureus VSSA, read-out: MIC; for MIC-fold improvement vs. vancomycin: VSSA, ratio of MIC of vancomycin and MIC of analogue
How it was run: as §1

[11] = test system: S. aureus VISA/HIP5827; assay: MIC, broth microdilution, vancomycin-intermediate S. aureus VISA HIP5827; assay type: cell-based, Staphylococcus aureus; conditions: for MIC: Staphylococcus aureus VISA/HIP5827, read-out: MIC; for MIC-fold improvement vs. vancomycin: VISA/HIP5827, ratio of MIC of vancomycin and MIC of analogue
How it was run: as §1

[12] = test system: S. aureus VRSA; assay: MIC, broth microdilution, vancomycin-resistant S. aureus (VRSA); assay type: cell-based, Staphylococcus aureus; conditions: for MIC: Staphylococcus aureus VRSA, read-out: MIC; for MIC-fold improvement vs. vancomycin: VRSA, ratio of MIC of vancomycin and MIC of analogue
How it was run: as §1

[13] = test system: MRSA KS2; assay: MIC, broth microdilution, MRSA KS2; assay type: cell-based, Staphylococcus aureus; conditions: for MIC-fold improvement vs. vancomycin: MRSA KS2, ratio of MIC of vancomycin and MIC of analogue; for MIC: Staphylococcus aureus MRSA KS2, read-out: MIC
How it was run: as §1

[14] = test system: MRSA KS6; assay: MIC, broth microdilution, MRSA KS6; assay type: cell-based, Staphylococcus aureus; conditions: for MIC-fold improvement vs. vancomycin: MRSA KS6, ratio of MIC of vancomycin and MIC of analogue; for MIC: Staphylococcus aureus MRSA KS6, read-out: MIC
How it was run: as §1

[15] = test system: MRSA KS89; assay: MIC, broth microdilution, MRSA KS89; assay type: cell-based, Staphylococcus aureus; conditions: for MIC-fold improvement vs. vancomycin: MRSA KS8, ratio of MIC of vancomycin and MIC of analogue; for MIC: Staphylococcus aureus MRSA KS8, read-out: MIC
How it was run: as §1

[16] = test system: MRSA KS1; assay: MIC, broth microdilution, MRSA KS1; assay type: cell-based, Staphylococcus aureus; conditions: for MIC-fold improvement vs. vancomycin: MRSA KS1, ratio of MIC of vancomycin and MIC of analogue; for MIC: Staphylococcus aureus MRSA KS1, read-out: MIC
How it was run: as §1

SMILES | MIC [1] | MIC-fold improvement vs. vancomycin [1] | MIC [2] | MIC-fold improvement vs. vancomycin [2] | MIC [3] | MIC-fold improvement vs. vancomycin [3] | MIC [4] | MIC-fold improvement vs. vancomycin [4] | MIC [5] | MIC-fold improvement vs. vancomycin [5] | IC50 [6] | IC50 [7] | IC50 [8] | IC50 [9] | MIC [10] | MIC-fold improvement vs. vancomycin [10] | MIC [11] | MIC-fold improvement vs. vancomycin [11] | MIC [12] | MIC-fold improvement vs. vancomycin [12] | further results
CNC(CC(C)C)C(=O)NC1C(=O)NC(CC(N)=O)C(=O)NC2C(=O)NC3C(=O)NC(C(=O)NC(C(=O)NCC(=O)Nc4ccc(-c5cn(-c6ccc(OC)cc6)nn5)cc4)c4cc(O)cc(O)c4-c4cc3ccc4O)C(O)c3ccc(c(Cl)c3)Oc3cc2cc(c3OC2OC(CO)C(O)C(O)C2OC2CC(C)(N)C(O)C(C)O2)Oc2ccc(cc2Cl)C1O (stereo not drawn) [Vanc-72] | 0.78 µM (≈ 1.37 µg/mL) | 2 | 3.13 µM (≈ 5.49 µg/mL) | 64 | 6.25 µM (≈ 11 µg/mL) | 64 | 6.25 µM (≈ 11 µg/mL) | 64 | 6.25 µM (≈ 11 µg/mL) | 64 | 173 ± 106 µM | 17 ± 1 µM | 25 ± 10 µM | 72 µM | 0.39 µM (≈ 0.684 µg/mL) | 2 | 0.78 µM (≈ 1.37 µg/mL) | 8 | 0.78 µM (≈ 1.37 µg/mL) | 128 | MIC-fold improvement vs. vancomycin [13]: 4; MIC [13]: 0.20 µM (≈ 0.351 µg/mL); MIC-fold improvement vs. vancomycin [14]: 4; MIC [14]: 0.20 µM (≈ 0.351 µg/mL); MIC-fold improvement vs. vancomycin [15]: 4; MIC [15]: 0.20 µM (≈ 0.351 µg/mL); MIC-fold improvement vs. vancomycin [16]: 0.5; MIC [16]: 1.56 µM (≈ 2.74 µg/mL)
CNC(CC(C)C)C(=O)NC1C(=O)NC(CC(N)=O)C(=O)NC2C(=O)NC3C(=O)NC(C(=O)NC(C(=O)NCCCNC(=O)c4ccc(C(C)(C)C)cc4)c4cc(O)cc(O)c4-c4cc3ccc4O)C(O)c3ccc(c(Cl)c3)Oc3cc2cc(c3OC2OC(CO)C(O)C(O)C2OC2CC(C)(N)C(O)C(C)O2)Oc2ccc(cc2Cl)C1O (stereo not drawn) [Vanc-73] | 0.78 µM (≈ 1.3 µg/mL) | 2 | 6.25 µM (≈ 10.4 µg/mL) | 32 | 25 µM (≈ 41.6 µg/mL) | 16 | 12.5 µM (≈ 20.8 µg/mL) | 32 | 25 µM (≈ 41.6 µg/mL) | 16 | 108 ± 42 µM | 130 ± 6 µM | 81 ± 6 µM | 106 µM | 0.78 µM (≈ 1.3 µg/mL) | 1 | 1.56 µM (≈ 2.6 µg/mL) | 4 | 6.25 µM (≈ 10.4 µg/mL) | 16 | MIC-fold improvement vs. vancomycin [13]: 2; MIC [13]: 0.39 µM (≈ 0.65 µg/mL); MIC-fold improvement vs. vancomycin [14]: 2; MIC [14]: 0.39 µM (≈ 0.65 µg/mL); MIC-fold improvement vs. vancomycin [15]: 2; MIC [15]: 0.39 µM (≈ 0.65 µg/mL); MIC-fold improvement vs. vancomycin [16]: 1; MIC [16]: 0.78 µM (≈ 1.3 µg/mL)
CCCCCc1ccc(NC(=O)CNC(=O)[C@H]2NC(=O)[C@H]3NC(=O)[C@H](NC(=O)[C@@H]4NC(=O)[C@H](CC(N)=O)NC(=O)[C@H](NC(=O)[C@@H](CC(C)C)NC)[C@H](O)c5ccc(c(Cl)c5)Oc5cc4cc(c5O[C@@H]4O[C@H](CO)[C@@H](O)[C@H](O)[C@H]4O[C@H]4C[C@](C)(N)[C@H](O)[C@H](C)O4)Oc4ccc(cc4Cl)[C@H]3O)c3ccc(O)c(c3)-c3c(O)cc(O)cc32)cc1 [Vanc-74] | 0.39 µM (≈ 0.644 µg/mL) | 4 | 1.56 µM (≈ 2.58 µg/mL) | 128 | 6.25 µM (≈ 10.3 µg/mL) | 64 | 12.5 µM (≈ 20.6 µg/mL) | 32 | 6.25 µM (≈ 10.3 µg/mL) | 64 | ≥ 250 µM | 78 ± 20 µM | 102 ± 46 µM | 143 µM | 0.39 µM (≈ 0.644 µg/mL) | 2 | 0.78 µM (≈ 1.29 µg/mL) | 8 | 1.56 µM (≈ 2.58 µg/mL) | 64 | MIC-fold improvement vs. vancomycin [13]: 4; MIC [13]: 0.20 µM (≈ 0.33 µg/mL); MIC-fold improvement vs. vancomycin [14]: 4; MIC [14]: 0.20 µM (≈ 0.33 µg/mL); MIC-fold improvement vs. vancomycin [15]: 4; MIC [15]: 0.20 µM (≈ 0.33 µg/mL); MIC-fold improvement vs. vancomycin [16]: 1; MIC [16]: 0.78 µM (≈ 1.29 µg/mL)
